The assay has as its target PIM1 (Homo sapiens, UniProt P11309). Description: ADP-Glo in vitro kinase assay; supported by CETSA western blot in MDA-MB-231 (about […] °C stabilization). The format is biochemical. Background: ADP-Glo turns the ADP formed in a reaction into a luminescent signal.

Drawing on publication PMC10051292, “Neoprzewaquinone A Inhibits Breast Cancer Cell Migration and Promotes Smooth Muscle Relaxation by Targeting PIM1 to Block ROCK2/STAT3 Pathway” (International Journal of Molecular Sciences, 2023), this text covers IC50 for one compound.

Molecules are shown by their SMILES.

Chain of PIM1 (P11309 whole entry): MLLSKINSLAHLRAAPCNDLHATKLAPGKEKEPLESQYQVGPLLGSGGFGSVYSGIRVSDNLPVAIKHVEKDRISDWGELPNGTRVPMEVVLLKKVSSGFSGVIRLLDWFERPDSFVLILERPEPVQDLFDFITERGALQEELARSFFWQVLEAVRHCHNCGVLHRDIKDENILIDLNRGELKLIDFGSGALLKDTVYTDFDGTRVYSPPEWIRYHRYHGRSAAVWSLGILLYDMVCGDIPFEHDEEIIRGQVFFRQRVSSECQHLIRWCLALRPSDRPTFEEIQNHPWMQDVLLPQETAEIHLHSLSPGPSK

A word on the IC50: it is the point on the concentration scale where inhibition reaches its midpoint. A higher IC50 goes with lower potency. `C=C1CCCc2c(ccc3c2C(=O)C(=O)c2c(C)coc2-3)/C(C)=C/CCc2c1ccc1c2C(=O)C(=O)c2c(C)coc2-1` [NEO, Neoprzewaquinone A] came in with an IC50 of 560 nM.
